What all share (format): functional, cell-based
The subject of assay [1] is PC-9. Kind of assay: Cytotoxicity against human PC-9 cells assessed as reduction in cell viability after 48 hrs by CCK8 assay. The settings on record: PC-9, 48 h.
Assay [2] deals with A549. Nature of the assay: Cytotoxicity against human A549 cells assessed as reduction in cell viability after 48 hrs by CCK8 assay. The settings on record: A549, 48 h.
The subject of assay [3] is NCI-H460. Kind of assay: Cytotoxicity against human NCI-H460 cells assessed as reduction in cell viability after 48 hrs by CCK8 assay. The settings on record: NCI-H460, 48 h.
For assay [4], the system named is NCI-H1650. Nature of the assay: Cytotoxicity against human NCI-H1650 cells assessed as reduction in cell viability after 48 hrs by CCK8 assay. Particulars: NCI-H1650, 48 h.
Assay [5] is described as follows: Cytotoxicity against human 95-D cells assessed as reduction in cell viability after 48 hrs by CCK8 assay.

The text below walks through data of ChEMBL document CHEMBL4665699, “Cytotoxic Diterpenoids from Caryopteris aureoglandulosa” (J Nat Prod, 2020).

Turning to `C[C@@]12CC[C@@H](OC1=O)c1c2cc(O)c2c1C(=O)c1oc(CO)cc1C2=O`, the IC50 in assay [1] was over 10 µM; in assay [2] it was 4.8 µM; in assay [3], over 10 µM; in assay [4] it was 1.6 µM; in assay [5], 3.9 µM.

Turning to `O=c1[nH]cc(F)c(=O)[nH]1` [FLUOROURACIL], the IC50 in assay [1] was over 10 µM; in assay [2] it was over 10 µM; in assay [3], 9.9 µM; in assay [4] it was over 10 µM; in assay [5], over 10 µM.

For the compound `Cc1cc2c(o1)C(=O)c1cc3c(c(O)c1C2=O)C(=O)CCCC3(C)C`, the half-maximal inhibitory concentration (IC50) in assay [1] is 8.2 µM; in assay [2], 10.4 µM; in assay [3] it was over 10 µM; in assay [4], 5.4 µM; in assay [5] it was over 10 µM.
